Bridge positions count the residues as written; N and C are the ends. Peptide text beside a SMILES is read from it.

What all share (set-up): PSA was purified from human seminal fluid as described previously (3); from tissue; host or cells: human seminal fluid
Data set [1] deals with T1, PSA (Homo sapiens, UniProt P07288). The data set can be described thus: Surface plasmon resonance, GST-peptides on PSA captured by MAb H117. The format is binding. The procedure:
The binding kinetics of selected peptides to PSA was studied by surface plasmon resonance (29) on a BIAcore 2000™ instrument (Biacore AB, Uppsala, Sweden). PSA was captured to the solid phase by MAb H117 which binds to the same epitope as MAb 5E4 (30). The capture antibody was covalently coupled onto the surface of the CM5 sensor chip according to the manufacturer's instructions, using coupling levels of 5000 resonance units (RU). PSA was captured by injection of 416 nM of PSA in PBS, 4-min contact time (5 μl/min) and 60 min wash (20 μl/min) providing ligand levels in the range 500-600 RUs. Each analyte (GST-peptide), at various concentrations, was injected for 1 min at 20 μl/min flow rate. […] PSA-binding to either chemically activated/deactivated blank surface or MAb H117 alone was subtracted as a non-specific interaction. Regeneration after each measurement cycle was done with 3×0.5 min injections of 10 mM HCl. Binding data were analyzed using the BIAEVALUATION software.
The association rate constat (ka), dissociation rate constant (kd) and equilibrium dissociation constant (KD) for GST-peptides to PSA were measured by surface plasmon resonance. […]
The binding kinetics and affinity of the peptides to PSA was estimated by surface plasmon resonance. Increasing concentrations of GST-peptides were injected over PSA captured by MAb H117. Background-corrected sensorgrams were fitted to single-site interaction between GST-peptide and PSA using three different GST-peptide concentrations and the rate equation: d(GST-peptide:PSA)/dt=ka(GST-peptide)×(PSA)−kd(GST-peptide:PSA).

Data set [2] deals with T1, PSA. The data set can be described thus: Enzyme activity of PSA with chromogenic substrate S-2586. The format is biochemical. The conditions noted are these: GST-peptides, S-2586; for minimum peptide concentration affecting the activity: PSA enzyme activity. The procedure:
The enzyme activity of PSA was studied in the presence of peptides alone or together with Zn^2+ by using the chymotrypsin substrate S-2586 (MeO-Suc-Arg-Pro-Tyr-pNA) (Chromogenix, Mölndal, Sweden). […] PSA (333 nM) was incubated with a 1-100-fold molar excess of GST-peptide or 100-fold excess of synthetic peptide in TBS buffer, pH 7.8 containing 0.5 g/L BSA for 1 h at 22° C. The effect of Zn^2+ on the enzyme activity of PSA was studied by including 1-200 μM of ZnCl2 in the reaction buffer. The combined effect of peptides and Zn2+ on the enzyme activity of PSA was studied by incubating PSA (333 nM) with peptide (333 nM) in the buffer containing 1-200 μM Zn^2+ for 1 h. After addition of substrate to a final concentration 0.2 mM, the absorbance was monitored at 5-min intervals for 2 h at 405 nm on a Labsystems Multiskan MCC/340 photometer (Labsystems, Helsinki, Finland). As a control, the effect of wild type GST on the enzyme activity of PSA was tested.
In the experiments, PSA (0.33 μM) was incubated with increasing concentrations of GST-C-4 (0-100-fold molar excess) for 1 h, after which the chromogenic substrate S-2586 was added and enzyme activity was monitored by measuring the absorbance at 405 nm. Data represent mean values from duplicate wells ±SE.
PSA (0.33 μM) was incubated with chemically synthesized peptides (100-fold molar excess) for 1 h, after which the chromogenic substrate S-2586 was added and enzyme activity was monitored by measuring the absorbance at 405 nm.
Because zinc is known to inhibit the enzyme activity of PSA, we further characterized the effect of GST-peptides on the enzyme activity of PSA by assessing the combined effect of peptides and Zn^2+. […] The effect of GST-C-4 and Zn^2+ on enzyme activity was determined by incubating PSA (0.33 μM) with the same molar concentration of GST-C-4 and various concentrations of Zn^2+. The reaction was monitored by measuring absorbance at 405 nm after addition of the chromogenic substrate S-2586. […] Data represent mean values from duplicate wells ±SE.
(§1) Data represent mean values from duplicate wells ±SE.
As control the enzyme activity of PSA alone was measured.
as §1
20 μg of the peptide was iodinated by the Iodogen method. After iodination the peptide was purified by using C18 Sep-Pak column.

Data set [3] addresses T1, PSA. Kind of data set: PSA activity measurements with modified peptides, substrate S-2586 (Example 5). The class given is biochemical. The conditions noted are these: ratio of OD 405 nm of PSA-peptide to PSA alone after 60 minutes; ratio > 1.1 interpreted as active. How it is done: PSA activity measurements: The effect of different peptides on the activity of PSA was studied by using chymotrypsin substrate S-2586 (MeO-Suc-Arg-Pro-Tyr-pNA) (Chromogenix, Mölndal, Sweden). 77 pmoles (2 μg) of PSA, substrate and 10 μmoles of different peptides were incubated in Tris-buffer (10 mM Tris and 150 mM NaCl at pH 7.8) with 0.2 mM concentration of the substrate at room temperature. PSA reaction without any peptide was used as basic level control. Reaction was measured after 60 minutes incubation at […] using Multiscan RC photometer (Labsystems, Finland). The effect of the peptides was calculated as a ratio from the OD value of PSA-peptide complex to PSA alone after 60 minutes incubation.

Where [4] appears, read: average at 3 analyte concentrations.
Where [5] appears, read: zinc 0 μM, average of 3 fits, analyte 3.4-8.5 μM.
[6] abbreviates: zinc 1 μM, single fit, 3.4 μM peptide.
Setting [7] is: zinc 10 μM, single fit, 3.4 μM peptide.
The mark [8] stands for this setting: zinc 30 μM, single fit, 3.4 μM peptide.

T1 sequence (P07288 25-261): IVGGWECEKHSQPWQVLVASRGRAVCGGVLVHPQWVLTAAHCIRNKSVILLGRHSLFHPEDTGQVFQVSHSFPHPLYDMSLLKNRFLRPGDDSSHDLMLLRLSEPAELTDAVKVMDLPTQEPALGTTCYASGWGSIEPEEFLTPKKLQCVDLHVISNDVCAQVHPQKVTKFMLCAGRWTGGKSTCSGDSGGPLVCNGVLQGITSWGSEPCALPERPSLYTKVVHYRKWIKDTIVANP

As for `CC(C)C[C@@H]1NC(=O)[C@H](Cc2ccc(O)cc2)NC(=O)[C@H](CC(=O)O)NC(=O)[C@H](Cc2ccc(O)cc2)NC(=O)[C@H](CC(N)=O)NC(=O)[C@H](Cc2c[nH]cn2)NC(=O)[C@H](C)NC(=O)[C@H](Cc2ccccc2)NC(=O)[C@H](C(C)C)NC(=O)[C@@H](N)CSSC[C@@H](C(=O)O)NC(=O)[C@H](C(C)C)NC1=O` [Peptide B-2] (H-CVFAHNYDYLVC-OH; disulfide 1-12; N-terminus assumed), the “kd × 10^−3 (1/s)” value is on record as 57 × 10^−3 1/s on PSA [1] (setting [4]); 57 × 10^−3 1/s on PSA [1] (setting [5]); 3.5 × 10^−3 1/s on PSA [1] (setting [6]); 1.6 × 10^−3 1/s on PSA [1] (setting [7]); 0.6 × 10^−3 1/s on PSA [1] (setting [8]). In addition, the “increase (fold) of affinity” value is given as 6 fold at PSA [1] (zinc 10 μM versus 0 μM) and 4.7 fold at PSA [1] (zinc 30 μM versus 0 μM). In addition, at PSA [2], the “minimum peptide concentration affecting the activity” value came out at 300 nM. Moreover, the PSA-peptide/PSA ratio on PSA [3] is on record as 3.0.
In general, Kd refers to the concentration at which binding is half-saturated. For the molecule CVFTSDYAFC [Peptide A-1], the “ka × 10^3 (1/Ms)” value on PSA [1] (setting [4]) is 10.3 × 10^3 1/Ms; on PSA [1] (setting [5]), 10.3 × 10^3 1/Ms; on PSA [1] (setting [6]) it was 1.8 × 10^3 1/Ms; on PSA [1] (setting [7]), 1.2 × 10^3 1/Ms; on PSA [1] (setting [8]), 1.9 × 10^3 1/Ms. The “kd × 10^−3 (1/s)” value at PSA [1] (setting [4]) is listed as 80 × 10^−3 1/s; on PSA [1] (setting [5]), 80 × 10^−3 1/s; on PSA [1] (setting [6]) it was 4.7 × 10^−3 1/s; on PSA [1] (setting [7]), 1.6 × 10^−3 1/s; at PSA [1] (setting [8]), 2.0 × 10^−3 1/s. Also, the Kd came out at 7.8 µM on PSA [1] (setting [5]) and 1 µM on PSA [1] (setting [8]). For the same molecule, the “increase (fold) of affinity” value at PSA [1] (zinc 1 μM versus 0 μM) came to 3 fold; at PSA [1] (zinc 10 μM versus 0 μM), 5.9 fold; on PSA [1] (zinc 30 μM versus 0 μM), 7.7 fold. Further, the EC50 in the data set with PSA [2] (PSA 0.33 μM, read-out: 50% stimulation (μM): peptide concentration required for half maximal stimulation of the enzyme activity of PSA) is 2.2 µM. The “minimum peptide concentration affecting the activity” value at PSA [2] was 300 nM. In addition, the PSA-peptide/PSA ratio on PSA [3] is 2.3.

Values taken from patent US7414023B2, “Peptide ligands for prostate specific antigen” (Licentia Ltd., priority 2000, dated 2008).
